The values below come from US9988371B2, “Benzimidazole analogues and related methods” (The Arizona Board of Regents, on Behalf of the University …, priority 2014, dated 2018).

The target in one experiment is T1, FYN (Homo sapiens, UniProt P06241).
T1 construct: purchased KINOMEscan
Kind of experiment: KINOMEscan kinase panel. Type of experiment: binding. Particulars: 50 nM. As to the method:
(§1) Pz-1 was exceptionally potent on RET and all tested RET mutants including gatekeeper mutants RET/V804M at less than 1 nM (FIGS. 1-3). The RET biochemical assay described herein was not suitable to determine activity of inhibitors having an IC50 of less than 1 nM, as the concentration of the RET enzyme in the assay was 2 nM. An intermediate compound was therefore used for the kinetics studies. […] Pz-1 was screened at concentration of 50 nM against 91 kinases in KINOMEscan, representing a diversity of each Kinome cluster. The kinase assays in KINOMEScan were more sensitive than the biochemical assays described above.

For a further experiment, the system named is GKA. The experiment in a line: KINOMEscan kinase panel. Type of experiment: binding. Particulars: 50 nM. As to the method:
as §1

The next experiment has as its target T2, SRC (Homo sapiens, UniProt P12931).
T2 construct: purchased KINOMEscan
Kind of experiment: KINOMEscan kinase panel. Type of experiment: binding. Particulars: 50 nM. As to the method: as §1

The target in a further experiment is T3, TRKB (Homo sapiens, UniProt Q16620).
T3 construct: purchased KINOMEscan
T3 sequence (Q16620 32-822): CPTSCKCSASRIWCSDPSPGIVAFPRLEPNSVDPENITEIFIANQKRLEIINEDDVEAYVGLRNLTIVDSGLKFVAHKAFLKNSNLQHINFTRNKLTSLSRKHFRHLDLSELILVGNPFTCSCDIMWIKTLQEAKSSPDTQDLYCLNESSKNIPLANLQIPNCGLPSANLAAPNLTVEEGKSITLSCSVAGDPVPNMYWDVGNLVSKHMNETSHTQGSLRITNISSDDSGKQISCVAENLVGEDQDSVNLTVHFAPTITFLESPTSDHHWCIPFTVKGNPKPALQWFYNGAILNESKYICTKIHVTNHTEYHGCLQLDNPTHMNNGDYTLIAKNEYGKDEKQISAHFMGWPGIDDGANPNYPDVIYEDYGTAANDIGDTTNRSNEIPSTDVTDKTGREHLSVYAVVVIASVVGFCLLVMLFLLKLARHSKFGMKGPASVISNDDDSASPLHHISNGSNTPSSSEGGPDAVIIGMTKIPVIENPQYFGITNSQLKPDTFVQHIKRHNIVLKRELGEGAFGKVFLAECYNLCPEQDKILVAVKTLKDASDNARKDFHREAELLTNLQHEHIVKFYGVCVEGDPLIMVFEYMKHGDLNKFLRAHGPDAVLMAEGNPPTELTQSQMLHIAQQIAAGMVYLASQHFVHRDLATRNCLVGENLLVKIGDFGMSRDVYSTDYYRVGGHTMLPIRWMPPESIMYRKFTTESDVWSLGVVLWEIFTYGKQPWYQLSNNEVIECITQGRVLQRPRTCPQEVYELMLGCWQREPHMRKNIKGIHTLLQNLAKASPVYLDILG
The experiment in a line: KINOMEscan kinase panel. Type of experiment: binding. Particulars: 50 nM. The procedure:
as §1

For the next experiment, the target named is T4, TRKC (Homo sapiens, UniProt Q16288).
T4 construct: purchased KINOMEscan
T4 sequence (Q16288 32-839): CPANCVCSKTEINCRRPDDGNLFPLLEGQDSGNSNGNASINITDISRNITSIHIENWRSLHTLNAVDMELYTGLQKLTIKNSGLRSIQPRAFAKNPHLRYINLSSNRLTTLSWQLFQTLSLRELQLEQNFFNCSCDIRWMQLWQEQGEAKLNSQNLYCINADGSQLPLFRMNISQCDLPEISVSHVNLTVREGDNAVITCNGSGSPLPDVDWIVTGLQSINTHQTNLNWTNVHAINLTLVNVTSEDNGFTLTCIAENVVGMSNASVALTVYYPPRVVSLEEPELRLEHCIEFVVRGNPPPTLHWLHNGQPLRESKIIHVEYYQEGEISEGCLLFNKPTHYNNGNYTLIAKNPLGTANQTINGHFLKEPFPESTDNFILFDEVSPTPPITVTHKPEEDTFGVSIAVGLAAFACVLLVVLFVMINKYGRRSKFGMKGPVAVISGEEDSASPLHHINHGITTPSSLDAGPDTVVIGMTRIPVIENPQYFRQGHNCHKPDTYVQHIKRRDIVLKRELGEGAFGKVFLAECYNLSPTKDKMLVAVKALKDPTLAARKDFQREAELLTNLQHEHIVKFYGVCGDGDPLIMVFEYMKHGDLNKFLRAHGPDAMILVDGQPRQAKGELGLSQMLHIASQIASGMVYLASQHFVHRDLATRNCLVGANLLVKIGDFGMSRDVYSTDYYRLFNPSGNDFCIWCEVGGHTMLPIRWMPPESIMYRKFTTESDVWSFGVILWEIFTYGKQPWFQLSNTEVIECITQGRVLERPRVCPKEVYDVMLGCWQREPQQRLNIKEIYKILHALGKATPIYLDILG
The experiment in a line: KINOMEscan kinase panel. Format: binding. Particulars: 50 nM. As to the method:
as §1

A further experiment deals with pMAPK. Kind of experiment: pMAPK immunoblot in Nthy-ori-3-1 cells. Format: cell-based, human. Particulars: Nthy-ory-3-1, non-transformed with oncogenic RET. As to the method:
FIG. 3: Photographs of blots showing inhibition of RET protein endogenously expressed in TT cells (human MTC cell line expressing RET/C634W) by indicated concentrations of Pz-1 or vehicle (NT: not treated) and reduced effects in thyroid non-transformed Nthy-ori-3-1 cells. Serum-starved human TT and thyroid non-transformed Nthy-ori-3-1 cell lines were treated for 2 hr with indicated concentrations of Pz-1. 50 μg of total cell lysates were subjected to immunoblotting with anti-phospho-Y1062 (αp1062) and anti-phospho-905 (αpY905) RET antibodies, anti-phospho-MAPK (αpMAPK, T302/Y304), and anti-phospho-SHC (αpSHC, Y317) antibodies. The blots were normalized using anti-RET (αRET) and anti-SHC (αSHC).
The inhibition of RET auto-phosphorylation by Pz-1 was measured in several different cell lines including NIH3T3 fibroblasts expressing RET/C634Y or RET/M918T, TT expressing RET/C634W (MTC), Nthy-ory-3-1 (thyroid, non-transformed with RET; negative control), HEK293/RET/PTC1 (CCDC6-RET that can be found in PTC & lung cancer), HEK293/RET-KIF5B (that can be found in lung cancer), HEK293/RET/PTC3 (NCOA4-RET, that can be found in PTC & lung cancer), and HEK293 transfected with RET/C634R-V804M (FIGS. 1-3). […]
Protein lysates were prepared according to standard procedures. […] Immune complexes were detected with the enhanced chemiluminescence kit (Amersham Pharmacia Biotech, Little Chalfort, UK). […]
For orientation: Immunoblotting shows a protein as a band on a membrane.

Structures are written as SMILES.

T1 sequence (P06241 whole entry): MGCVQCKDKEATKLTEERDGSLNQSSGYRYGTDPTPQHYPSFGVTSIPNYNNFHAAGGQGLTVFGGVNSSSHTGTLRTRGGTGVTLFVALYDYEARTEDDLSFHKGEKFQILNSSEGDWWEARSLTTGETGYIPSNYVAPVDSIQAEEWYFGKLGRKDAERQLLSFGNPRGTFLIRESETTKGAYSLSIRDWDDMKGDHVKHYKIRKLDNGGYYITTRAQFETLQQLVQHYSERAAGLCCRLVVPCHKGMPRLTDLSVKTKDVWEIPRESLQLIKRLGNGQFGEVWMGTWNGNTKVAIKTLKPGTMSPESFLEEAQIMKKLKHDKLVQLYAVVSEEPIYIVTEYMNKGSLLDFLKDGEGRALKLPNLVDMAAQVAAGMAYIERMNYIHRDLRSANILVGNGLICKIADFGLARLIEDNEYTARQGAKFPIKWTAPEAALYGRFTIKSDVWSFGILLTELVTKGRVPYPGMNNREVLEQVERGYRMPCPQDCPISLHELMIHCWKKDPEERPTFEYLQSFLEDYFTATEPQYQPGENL
T2 sequence (P12931 whole entry): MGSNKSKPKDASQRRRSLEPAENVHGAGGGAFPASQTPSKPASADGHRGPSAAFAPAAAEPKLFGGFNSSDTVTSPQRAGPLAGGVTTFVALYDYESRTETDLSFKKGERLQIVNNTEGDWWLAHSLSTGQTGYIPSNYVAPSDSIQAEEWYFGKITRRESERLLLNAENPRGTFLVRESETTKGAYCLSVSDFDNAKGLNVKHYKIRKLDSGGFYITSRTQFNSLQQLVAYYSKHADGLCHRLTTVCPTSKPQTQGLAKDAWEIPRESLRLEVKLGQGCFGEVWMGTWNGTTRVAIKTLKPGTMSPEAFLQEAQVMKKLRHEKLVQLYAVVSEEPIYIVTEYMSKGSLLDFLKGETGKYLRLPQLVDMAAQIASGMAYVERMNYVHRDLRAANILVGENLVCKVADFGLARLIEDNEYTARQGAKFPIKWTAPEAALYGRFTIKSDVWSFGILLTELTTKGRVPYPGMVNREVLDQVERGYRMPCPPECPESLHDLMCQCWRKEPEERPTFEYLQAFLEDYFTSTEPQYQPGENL

With `Cn1cc(-c2ccc3c(c2)ncn3-c2ccc(CC(=O)Nc3cc(C(C)(C)C)on3)cc2)cn1` [Pz-1, N-(5-(tert-butyl)isoxazol-3-yl)-2-(4-(5-(1-methyl-1H-pyrazol-4-yl)-1H-benzo[d]imidazol-1-yl)phenyl)acetamide], the inhibition at 0.05 µM at FYN, against SRC, at TRKB and on TRKC was roughly 90% each time. Besides, the “inhibition of GKA” value with GKA is roughly 90%. Also, in the experiment with pMAPK, the “concentration at which pMAPK was inhibited” value stood at 100 nM.
